From US11752154B2, “Pharmaceutical compositions comprising sepiapterin and uses thereof” (PTC Therapeutics MP, Inc., priority 2017, dated 2023)
Blank lines part the entries; values can stand above or below the molecule they belong to.

Experiments:
[1] = Determination of BH4 and sepiapterin levels in plasma, liver, kidney and urine after sepiapterin or BH4 (Example 4); format: in vivo; settings: for kidney, liver and urine exposure to BH4 versus dose level: 20, 60 or 180 mg/kg
Method: Animals were administered the test items, sepiapterin or BH4, at dose levels of 20, 60 or 180 mg/kg. Blood, liver, kidney and urine samples (where possible) were collected from 3 animals/timepoints/group on the day of dosing at 0 (pre-dose, controls only), 0.5, 1, 2, 4, and 8 hours post-dose. Samples were assayed for sepiapterin or BH4 (not quantified in plasma) and non-compartmental pharmacokinetic analysis was performed.

[2] = Kinetic solubility and disproportionation of sepiapterin salts and/or co-crystals in water and Medisca Oral Mix (Example 8); format: physicochemical; settings: for Solubility / Form change / Purity (area %) / solubility at 1 hr / solubility at 4 hr / solubility at 24 hr: RT; for Solubility / solubility at 1 hr / solubility at 4 hr / solubility at 24 hr: calculated using freebase, target conc. ~7 mg/mL; for Form change: residual solids by XRPD; for Purity (area %): supernatant, for reference only; for form of residual solids: water and Medisca Oral Mix, after 1 hour; for solubility at 1 hr / solubility at 4 hr / solubility at 24 hr: thermodynamic from solid
Method: The kinetic solubility was evaluated for nicotinate, phosphate, L-tartrate, and fumarate salts and/or co-crystals of sepiapterin in water and Medisca Oral Mix. X-ray powder diffraction (XRPD) was performed for the residual solids to identify form change/disproportionation. Solids were suspended into the media with target conc. of ˜7 mg/mL (calculated by freebase). The suspensions were agitated on a rolling incubator at 25 rpm for 1, 4 and 24 hrs. At each time point, 1 mL of the suspension was pipetted out for centrifugation at 10000 rpm (2 min) and filtration through 0.45 μm membrane to obtain supernatant for HPLC solubility and pH tests, the residual solids were analyzed by XRPD.

[3] = Stability analysis of salts and/or co-crystals of sepiapterin (Example 7); format: physicochemical; settings: 25° C./60% RH and 40° C./75% RH, two weeks
Method: The stability of the prepared salts and/or co-crystals was analyzed after […] at 25° C. and 60% relative humidity and 40° C. and 75% relative humidity. […] None of the phosphate, tartrate, or nicotinate salts and/or co-crystals underwent a form change during the stability testing, and each of them retained greater than 97% purity over the two weeks of the study. In fact, both the tartrate and nicotinate both retained greater than 99% purity.

[4] = Medisca Oral Mix, 1 hr, listed as L-tartrate salt and/or co-crystal
[5] = Water, 1 hr, listed as L-tartrate salt and/or co-crystal
[6] = Water, 4 hr, listed as L-tartrate salt and/or co-crystal
[7] = Water, 24 hr, listed as L-tartrate salt and/or co-crystal
[8] = Medisca Oral Mix, 24 hr, listed as phosphate salt and/or co-crystal
[9] = Water, 1 hr, listed as phosphate salt and/or co-crystal
[10] = Water, 4 hr, listed as phosphate salt and/or co-crystal
[11] = Water, 24 hr, listed as phosphate salt and/or co-crystal

Solubility [2, 8]: 2100 µg/mL
Solubility [2, 9]: 1700 µg/mL
Solubility [2, 10]: 2000 µg/mL
Solubility [2, 11]: 1900 µg/mL
Form change ([2]; Medisca Oral Mix, 1 hr, ** = low crystallinity, listed as phosphate salt and/or co-crystal): Yes**
Form change ([2]; Medisca Oral Mix, 4 hr, ** = low crystallinity, listed as phosphate salt and/or co-crystal): Yes**
Form change ([2]; Medisca Oral Mix, 24 hr, ** = low crystallinity, listed as phosphate salt and/or co-crystal): Yes**
Form change [2, 9]: Yes
Form change [2, 10]: Yes
Form change [2, 11]: Yes
Purity (area %) ([2]; Medisca Oral Mix, 1 hr, listed as phosphate salt and/or co-crystal): 99.23 area %
Purity (area %) ([2]; Medisca Oral Mix, 4 hr, listed as phosphate salt and/or co-crystal): 98.95 area %
Purity (area %) [2, 8]: 87.63 area %
Purity (area %) [2, 9]: 89.92 area %
Purity (area %) [2, 10]: 89.52 area %
Purity (area %) [2, 11]: 82.64 area %
form of residual solids [2]: converted to freebase
form change during the stability testing [3]: None
Structure (SMILES): C[C@H](O)C(=O)C1=Nc2c(nc(N)[nH]c2=O)NC1 [Phosphate]

kidney, liver and urine exposure to BH4 versus dose level [1]: decreased as the dose level increased
kidney BH4 Cmax following sepiapterin administration versus BH4 alone ([1]; except at the high-dose): similar
secondary peak of absorption (plasma sepiapterin) ([1]; low- and mid-dose levels, post-dose): 8 h
sepiapterin exposure amongst the analyzed matrices ([1]; plasma, liver, kidney, urine): highest in urine
dose proportionality of circulating sepiapterin exposure ([1]; plasma, entire dose range): much greater than dose proportional
time of maximum sepiapterin plasma concentrations ([1]; post-dose, sepiapterin 20, 60 or 180 mg/kg): 30 minutes or 2 hours
dose proportionality of sepiapterin exposure ([1]; urine, liver and kidney, entire dose range): less than dose proportional
Structure (SMILES): C[C@H](O)C(=O)C1=Nc2c(nc(N)[nH]c2=O)NC1 [sepiapterin]
sepiapterin detected in the liver and kidney ([1]; sepiapterin 20, 60 or 180 mg/kg): only at 30 minutes post-dose and only in the liver for the mid- or high-dose

More lines, now with the values behind:

Structure (SMILES): C[C@H](O)[C@H](O)[C@H]1CNc2nc(N)[nH]c(=O)c2N1 [BH4, tetrahydrobiopterin, reference compound]
kidney, liver and urine exposure to BH4 versus dose level [1]: decreased as the dose level increased

Structure (SMILES): C[C@H](O)C(=O)C1=Nc2c(nc(N)[nH]c2=O)NC1 [L-Tartrate]
Solubility [2, 4]: 2000 µg/mL
Solubility [2, 5]: 1600 µg/mL
Solubility [2, 6]: 1800 µg/mL
Solubility [2, 7]: 1800 µg/mL
Form change ([2]; Medisca Oral Mix, 1 hr, ** = low crystallinity, listed as L-tartrate salt and/or co-crystal): Yes
Form change ([2]; Medisca Oral Mix, 4 hr, ** = low crystallinity, listed as L-tartrate salt and/or co-crystal): Yes
Form change ([2]; Medisca Oral Mix, 24 hr, ** = low crystallinity, listed as L-tartrate salt and/or co-crystal): Yes
Form change [2, 5]: Yes
Form change [2, 6]: Yes
Form change [2, 7]: Yes
Purity (area %) [2, 4]: 99.68 area %
Purity (area %) ([2]; Medisca Oral Mix, 4 hr, listed as L-tartrate salt and/or co-crystal): 99.54 area %
Purity (area %) ([2]; Medisca Oral Mix, 24 hr, listed as L-tartrate salt and/or co-crystal): 95.67 area %
Purity (area %) [2, 5]: 99.34 area %
Purity (area %) [2, 6]: 99.07 area %
Purity (area %) [2, 7]: 95.61 area %
form of residual solids [2]: converted to freebase
form change during the stability testing [3]: None

Structure (SMILES): C[C@H](O)C(=O)C1=Nc2c(nc(N)[nH]c2=O)NC1 [Nicotinate]
solubility at 1 hr ([2]; Medisca Oral Mix, aqueous with cosolvent or surfactant or cyclodextrin, 1 hr): 2600 µg/mL
solubility at 4 hr ([2]; Medisca Oral Mix, aqueous with cosolvent or surfactant or cyclodextrin, 4 hr): 3100 µg/mL
solubility at 24 hr ([2]; Medisca Oral Mix, aqueous with cosolvent or surfactant or cyclodextrin, 24 hr): 3500 µg/mL
Form change ([2]; Medisca Oral Mix, 1 hr, ** = low crystallinity, listed as nicotinate salt and/or co-crystal): Yes
Form change ([2]; Medisca Oral Mix, 4 hr, ** = low crystallinity, listed as nicotinate salt and/or co-crystal): Yes
Form change ([2]; Medisca Oral Mix, 24 hr, ** = low crystallinity, listed as nicotinate salt and/or co-crystal): Yes
Form change ([2]; Water, 1 hr, listed as nicotinate salt and/or co-crystal): Yes
Form change ([2]; Water, 4 hr, listed as nicotinate salt and/or co-crystal): Yes
Form change ([2]; Water, 24 hr, listed as nicotinate salt and/or co-crystal): Yes
form of residual solids [2]: converted to freebase
solubility at 1 hr ([2]; water, 1 hr): 1500 µg/mL
solubility at 4 hr ([2]; water, 4 hr): 2300 µg/mL
solubility at 24 hr ([2]; water, 24 hr): 1800 µg/mL
form change during the stability testing [3]: None
